Tests used:
elderly mice = conditions: reference [17]; cited from earlier work
Male Sprague-Dawley rats [1] = experiment: Voluntary wheel running after doxorubicin; type: in vivo, rat
Procedure: (§1) FIGS. 1A-1D. […] A) Voluntary wheel running, followed by B) the von Frey test for mechanical allodynia (pain) at day 3. At day 8, C) short term spatial memory was assessed using the novel location recognition test. At day 9, D) short term object memory was assessed using the novel object recognition test. n=8, *p<0.05, **p<0.01, ****p<0.0001. Dunn's multiple comparison test, Kruskal Wallis one-way ANOVA.
(§2) In this Example, the strategy is to raise NAD^+ levels during chemotherapy treatment by administering animals with a cell permeable NAD^+ precursor known as nicotinamide mononucleotide (NMN). […] As expected, a single dose of doxorubicin caused neurocognitive defects including reduced voluntary wheel running, increased pain, and reduced short term spatial memory (FIG. 1).

Male Sprague-Dawley rats [2] = experiment: von Frey test for mechanical allodynia (pain) after doxorubicin; type: in vivo, rat
Procedure: as §1, §2

Male Sprague-Dawley rats [3] = experiment: Novel location recognition test (short term spatial memory) after doxorubicin; type: in vivo, rat
Procedure: as §1, §2

muscle mitochondria = experiment: Mitochondrial respiration in Clarke type electrode; conditions: aged NMN treated mice, preliminary data FIG. 3C

Compound | metabolism and aspects of ageing (elderly mice) | voluntary wheel running, effect of doxorubicin (Male Sprague-Dawley rats [1]; single i.p. dose of doxorubicin (4 mg/kg), male SD rats) | pain (mechanical allodynia, von Frey test), effect of doxorubicin (Male Sprague-Dawley rats [2]; single i.p. dose of doxorubicin (4 mg/kg), day 3, male SD rats) | short term spatial memory (novel location recognition test), effect of doxorubicin (Male Sprague-Dawley rats [3]; single i.p. dose of doxorubicin (4 mg/kg), day 8, male SD rats) | effect of NMN on doxorubicin-reduced voluntary wheel running (Male Sprague-Dawley rats [1]; NMN in drinking water (500 mg/L) 24 hr prior and subsequent, plus 200 mg/kg co-administered with doxorubicin 4 mg/kg i.p.) | effect of NMN on doxorubicin-increased pain (mechanical allodynia, von Frey) (Male Sprague-Dawley rats [2]; NMN in drinking water (500 mg/L) plus 200 mg/kg co-administered with doxorubicin 4 mg/kg i.p., day 3) | effect of NMN on doxorubicin-reduced short term spatial memory (novel location recognition) (Male Sprague-Dawley rats [3]; NMN in drinking water (500 mg/L) plus 200 mg/kg co-administered with doxorubicin 4 mg/kg i.p., day 8) | mitochondrial dysfunction (respiratory capacity of muscle mitochondria) (muscle mitochondria)
NC(=O)c1ccc[n+]([C@@H]2O[C@H](CO)[C@@H](O)[C@H]2O)c1 [NR, Nicotinamide Riboside] | improve metabolism and reverse aspects of ageing | – | – | – | – | – | – | –
COc1cccc2c1C(=O)c1c(O)c3c(c(O)c1C2=O)C[C@@](O)(C(=O)CO)C[C@@H]3O[C@H]1C[C@H](N)[C@H](O)[C@H](C)O1 [doxorubicin, reference compound] | – | reduced | increased | reduced | – | – | – | –
Nicotinamide Mononucleotide [NMN] | improve metabolism and reverse aspects of ageing | – | – | – | reduced the effects of doxorubicin | reduced the effects of doxorubicin | reduced the effects of doxorubicin | reverse

Reference: patent US11389469B2, “Targeting NAD+ to treat chemotherapy and radiotherapy induced cognitive impairment, neuropathies and inactivity” (NewSouth Innovations Pty Ltd, priority 2015, dated 2022)
